From patent US20220184034A1, “METHODS FOR TREATING CUTANEOUS METASTATIC CANCERS” (Adgero Biopharmaceuticals Holdings, Inc., priority 2020, published 2022)

Tested on: cutaneous lesions arising from either basal cell cancer, squamous cell cancer or CMBC
Test: Phase 1/2 dose escalation study of SnET2 PDT: lesion response
Type: in vivo, patients
Experimental: Two Phase 1/2 studies established the clinical dosimetry. The first study was a dose escalation study that enrolled a total of 22 patients with cutaneous lesions arising from either basal cell cancer, squamous cell cancer or CMBC. A total of 213 lesions were treated using photosensitizer SnET2) doses ranging from 0.1-1.2 mg/kg, light doses of 100, 150 or 200 J/cm^2 and treatment timepoints of 24, 48, or 72 hours post-infusion. Two key measures were utilized in these studies, lesion reaction and lesion response. Lesion reaction was an acute characterization of the treatment effect that was performed out to 1 week post-treatment according to the following scale: • Grade 0=No visual erythema or edema • Grade 1=Faint erythema and/or slight edema • Grade 2=Moderate erythema and edema • Grade 3=Severe discoloration, edema, sloughing or eschar
Beginning at one month post-treatment and then at 3 and 6 months post-treatment, a lesion response assessment was conducted according to the following scoring system: • Complete Response (complete reduction of the lesion) • Partial Response (more than 50% reduction of the lesion) • Failure (less than 50% reduction of the lesion).
Therefore, in the analysis that follows, results from all three treatment timepoints have been combined.
A similar result was observed when individual patient responses were compared. In these studies, individual patients received a single drug dose and each patient then had individual lesions treated at various light doses (100, 150, or 200 J/cm^2) and treatment timepoints (24, 48, 72 hours post-infusion). In Table 3, results for each patient treated at 0.8 mg/kg or higher are provided. In each drug dose case, individual lesions were treated at one of the three light doses and one of the three treatment timepoints, all of which have been combined for each individual patient result in the table.

[1] = 0.1 mg/kg, 100 J/cm^2, 24/48/72 h combined
[2] = 0.1 mg/kg, 150 J/cm^2, 24/48/72 h combined
[3] = 0.1 mg/kg, 200 J/cm^2, 24/48/72 h combined
[4] = 0.2 mg/kg, 100 J/cm^2, 24/48/72 h combined
[5] = 0.2 mg/kg, 150 J/cm^2, 24/48/72 h combined
[6] = 0.2 mg/kg, 200 J/cm^2, 24/48/72 h combined
[7] = 0.4 mg/kg, 100 J/cm^2, 24/48/72 h combined
[8] = 0.4 mg/kg, 150 J/cm^2, 24/48/72 h combined
[9] = 0.4 mg/kg, 200 J/cm^2, 24/48/72 h combined
[10] = 0.8 mg/kg, 100 J/cm^2, 24/48/72 h combined
[11] = 0.8 mg/kg, 100 J/cm^2, lesions scored for reaction at Week 1
[12] = 0.8 mg/kg, 150 J/cm^2, 24/48/72 h combined
[13] = 0.8 mg/kg, 150 J/cm^2, lesions scored for reaction at Week 1
[14] = 0.8 mg/kg, 200 J/cm^2, 24/48/72 h combined
[15] = 0.8 mg/kg, 200 J/cm^2, lesions scored for reaction at Week 1
[16] = 1.0 mg/kg, 100 J/cm^2, 24/48/72 h combined
[17] = 1.0 mg/kg, 100 J/cm^2, lesions scored for reaction at Week 1
[18] = 1.0 mg/kg, 150 J/cm^2, 24/48/72 h combined
[19] = 1.0 mg/kg, 150 J/cm^2, lesions scored for reaction at Week 1
[20] = 1.0 mg/kg, 200 J/cm^2, 24/48/72 h combined
[21] = 1.0 mg/kg, 200 J/cm^2, lesions scored for reaction at Week 1
[22] = 1.2 mg/kg, 100 J/cm^2, 24/48/72 h combined
[23] = 1.2 mg/kg, 100 J/cm^2, lesions scored for reaction at Week 1
[24] = 1.2 mg/kg, 150 J/cm^2, 24/48/72 h combined
[25] = 1.2 mg/kg, 150 J/cm^2, lesions scored for reaction at Week 1
[26] = 1.2 mg/kg, 200 J/cm^2, 24/48/72 h combined
[27] = 1.2 mg/kg, 200 J/cm^2, lesions scored for reaction at Week 1
[28] = patient RC004, drug dose 0.8 mg/kg, light doses and timepoints combined
[29] = patient RC005, drug dose 1.2 mg/kg, light doses and timepoints combined
[30] = patient RC006, drug dose 1.2 mg/kg, light doses and timepoints combined
[31] = patient RC007, drug dose 1.2 mg/kg, light doses and timepoints combined
[32] = patient SC001, drug dose 1.2 mg/kg, light doses and timepoints combined
[33] = patient SC002, drug dose 1 mg/kg, light doses and timepoints combined
[34] = patient SC003, drug dose 1 mg/kg, light doses and timepoints combined
[35] = patient SC004, drug dose 1 mg/kg, light doses and timepoints combined
[36] = patient SC005, drug dose 1.2 mg/kg, light doses and timepoints combined
[37] = patient WC007, drug dose 0.8 mg/kg, light doses and timepoints combined
[38] = patient WC008, drug dose 0.8 mg/kg, light doses and timepoints combined
[39] = patient WC009, drug dose 1.2 mg/kg, light doses and timepoints combined
[40] = patient WC010, drug dose 1.2 mg/kg, light doses and timepoints combined

tin ethyl etiopurpurin [SnET2]
Complete Responders [1]: 0 | Partial Responders [1]: 0 | Response Rate (%) [1]: 0% | Total Responders [1]: 0 | Complete Responders [2]: 0 | Partial Responders [2]: 0 | Response Rate (%) [2]: 0% | Total Responders [2]: 0 | Complete Responders [3]: 0 | Partial Responders [3]: 0 | Response Rate (%) [3]: 0% | Total Responders [3]: 0 | Complete Responders [4]: 0 | Partial Responders [4]: 1 | Response Rate (%) [4]: 50% | Total Responders [4]: 1 | Complete Responders [5]: 0 | Partial Responders [5]: 0 | Response Rate (%) [5]: 0% | Total Responders [5]: 0 | Complete Responders [6]: 0 | Partial Responders [6]: 0 | Response Rate (%) [6]: 0% | Total Responders [6]: 0 | Complete Responders [7]: 0 | Partial Responders [7]: 0 | Response Rate (%) [7]: 0% | Total Responders [7]: 0 | Complete Responders [8]: 0 | Partial Responders [8]: 0 | Response Rate (%) [8]: 0% | Total Responders [8]: 0 | Complete Responders [9]: 0 | Partial Responders [9]: 0 | Response Rate (%) [9]: 0% | Total Responders [9]: 0 | lesions with responses (0.8 mg/kg or higher): 95 of 102 | Complete Responders [10]: 9 | Partial Responders [10]: 2 | Response Rate (%) [10]: 78% | Total Responders [10]: 11 | % Responders [11]: 79% | Total Responders [11]: 11 | Complete Responders [12]: 8 | Partial Responders [12]: 5 | Response Rate (%) [12]: 87% | Total Responders [12]: 13 | % Responders [13]: 87% | Total Responders [13]: 13 | Complete Responders [14]: 12 | Partial Responders [14]: 1 | Response Rate (%) [14]: 87% | Total Responders [14]: 13 | % Responders [15]: 87% | Total Responders [15]: 13 | Complete Responders [16]: 3 | Partial Responders [16]: 0 | Response Rate (%) [16]: 100% | Total Responders [16]: 3 | % Responders [17]: 100% | Total Responders [17]: 3 | Complete Responders [18]: 4 | Partial Responders [18]: 1 | Response Rate (%) [18]: 100% | Total Responders [18]: 5 | % Responders [19]: 100% | Total Responders [19]: 5 | Complete Responders [20]: 8 | Partial Responders [20]: 0 | Response Rate (%) [20]: 100% | Total Responders [20]: 8 | % Responders [21]: 100% | Total Responders [21]: 8 | Complete Responders [22]: 5 | Partial Responders [22]: 7 | Response Rate (%) [22]: 100% | Total Responders [22]: 12 | % Responders [23]: 100% | Total Responders [23]: 6 | Complete Responders [24]: 7 | Partial Responders [24]: 9 | Response Rate (%) [24]: 100% | Total Responders [24]: 16 | % Responders [25]: 100% | Total Responders [25]: 9 | Complete Responders [26]: 11 | Partial Responders [26]: 3 | Response Rate (%) [26]: 100% | Total Responders [26]: 14 | % Responders [27]: 100% | Total Responders [27]: 7 | response rate of individual patients (all patients at 0.8 mg/kg or higher, with the exception of one patient dosed at 0.8 mg/kg): 100% | response at the drug dose threshold and greater (at about 0.5 to about 0.8 mg/kg and greater (1.2 mg/kg)): good responses were observed | threshold dose for lesion response (dose escalation 0.1-1.2 mg/kg): 0.8 mg/kg | response below the drug dose threshold (doses below about 0.5 to about 0.8 mg/kg): no response was observed | Lesions Responded (doses less than 0.8 mg/kg): 1 of 111 | influence of light dose and treatment timepoint (light doses 100 to 200 J/cm^2, timepoints 24 to 72 hours post administration): did not indicate significant differences | variation in response with treatment timepoint (light given at 24, 48 or 72 hours after administration): minimal variation in response with treatment timepoint | % Lesions Responded [28]: 74% | Lesions Responded [28]: 20 | % Lesions Responded [29]: 100% | Lesions Responded [29]: 6 | % Lesions Responded [30]: 100% | Lesions Responded [30]: 1 | % Lesions Responded [31]: 100% | Lesions Responded [31]: 3 | % Lesions Responded [32]: 100% | Lesions Responded [32]: 4 | % Lesions Responded [33]: 100% | Lesions Responded [33]: 6 | % Lesions Responded [34]: 100% | Lesions Responded [34]: 6 | % Lesions Responded [35]: 100% | Lesions Responded [35]: 4 | % Lesions Responded [36]: 100% | Lesions Responded [36]: 6 | % Lesions Responded [37]: 100% | Lesions Responded [37]: 9 | % Lesions Responded [38]: 100% | Lesions Responded [38]: 8 | % Lesions Responded [39]: 100% | Lesions Responded [39]: 20 | % Lesions Responded [40]: 100% | Lesions Responded [40]: 2
